From paper PMC9683047, “Design, synthesis and biological evaluation of 4-aminoquinoline derivatives as receptor-interacting protein kinase 2 (RIPK2) inhibitors” (Journal of Enzyme Inhibition and Medicinal Chemistry, 2022)

How the values were obtained:
IRAK4(h) = biological target: T1, IRAK4(h) (Homo sapiens, UniProt Q9NWZ3); assay: Kinase selectivity panel: IRAK4; format: biochemical
T1 construct: purchased Eurofins (Millipore) KinaseProfiler Diversity Panel
Experimental: (§1) To confirm the anti-inflammatory effect was caused by RIPK2 inhibition, compound 14 was subjected to kinase selectivity evaluation (Figure 4). Kinase selectivity profile of compound 14 as shown by the diversity kinase Panel screen against 70 kinases assayed at 1 µM. Among all tested 70 kinases, only five were inhibited over 90% at 1 µM including Fyn, Lyn, BTK, Abl and RIPK2. Three kinases including KDR, CDK9 and LOK were inhibited 50–90% at 1 µM.

AO oxidase = biological target: T2, AO oxidase (Homo sapiens, UniProt Q06278); assay: AO oxidative metabolism in human liver cytosol; format: in vitro ADME; settings: human liver cytosol incubation; inhibitors raloxifene and menadione
T2 construct: could undergo mono oxidative metabolism in the human liver cytosol incubation system; from tissue; host or cells: human liver cytosol
Experimental: However, we have done experiment on AO oxidative metabolism of compound 14 and P5. Both compound 14 and P5 could undergo mono oxidative metabolism in the human liver cytosol incubation system.

TYK2(h) = biological target: T3, TYK2(h) (Homo sapiens, UniProt P29597); assay: Kinase selectivity panel: TYK2; format: biochemical; settings: 1 µM
T3 construct: purchased Eurofins (Millipore) KinaseProfiler Diversity Panel
Experimental: as §1

IGF-1R(h) = biological target: T4, IGF-1R(h) (Homo sapiens, UniProt P08069); assay: Kinase selectivity panel: IGF-1R; format: biochemical; settings: 1 µM
T4 construct: purchased Eurofins (Millipore) KinaseProfiler Diversity Panel
Experimental: as §1

Rsk1(h) = biological target: T5, Rsk1(h) (Homo sapiens, UniProt Q15418); assay: Kinase selectivity panel: Rsk1; format: biochemical; settings: 1 µM
T5 construct: purchased Eurofins (Millipore) KinaseProfiler Diversity Panel
Experimental: as §1

RIPK2 = biological target: T6, RIPK2 (Homo sapiens, UniProt O43353); assay: Lipophilic ligand efficiency (LipE); settings: LipE = pIC50 − ClogP
T6 construct: purchased Promega

ALK(h) = biological target: T7, ALK(h) (Homo sapiens, UniProt Q9UM73); assay: Kinase selectivity panel: ALK; format: biochemical; settings: 1 µM
T7 construct: purchased Eurofins (Millipore) KinaseProfiler Diversity Panel
Experimental: as §1

CK1γ1(h) = biological target: T8, CK1γ1(h) (Homo sapiens, UniProt Q9HCP0); assay: Kinase selectivity panel: CK1γ1; format: biochemical; settings: 1 µM
T8 construct: purchased Eurofins (Millipore) KinaseProfiler Diversity Panel
Experimental: as §1

BTK(h) = biological target: T9, BTK(h) (Homo sapiens, UniProt Q06187); assay: Kinase selectivity panel: BTK; format: biochemical
T9 construct: purchased Eurofins (Millipore) KinaseProfiler Diversity Panel
Experimental: as §1

CDK9/cyclin T1(h) = biological target: T10, CDK9/cyclin T1(h) (Homo sapiens, UniProt P50750); assay: Kinase selectivity panel: CDK9/cyclin T1; format: biochemical
T10 construct: purchased Eurofins (Millipore) KinaseProfiler Diversity Panel
Experimental: as §1

Plk3(h) = biological target: T11, Plk3(h) (Homo sapiens, UniProt Q9H4B4); assay: Kinase selectivity panel: Plk3; format: biochemical; settings: 1 µM
T11 construct: purchased Eurofins (Millipore) KinaseProfiler Diversity Panel
Experimental: as §1

T10 sequence (P50750 whole entry): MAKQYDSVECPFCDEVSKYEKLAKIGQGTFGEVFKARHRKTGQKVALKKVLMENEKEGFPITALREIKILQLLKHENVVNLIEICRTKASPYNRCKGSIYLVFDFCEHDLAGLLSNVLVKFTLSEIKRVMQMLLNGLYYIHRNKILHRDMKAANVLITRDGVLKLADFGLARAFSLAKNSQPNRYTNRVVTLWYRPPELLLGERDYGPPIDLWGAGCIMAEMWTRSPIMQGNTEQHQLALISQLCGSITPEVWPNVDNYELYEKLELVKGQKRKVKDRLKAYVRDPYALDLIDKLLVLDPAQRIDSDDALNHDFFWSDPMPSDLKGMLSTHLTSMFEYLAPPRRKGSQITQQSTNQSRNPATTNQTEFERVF
T10 sequence (O60563 whole entry partner): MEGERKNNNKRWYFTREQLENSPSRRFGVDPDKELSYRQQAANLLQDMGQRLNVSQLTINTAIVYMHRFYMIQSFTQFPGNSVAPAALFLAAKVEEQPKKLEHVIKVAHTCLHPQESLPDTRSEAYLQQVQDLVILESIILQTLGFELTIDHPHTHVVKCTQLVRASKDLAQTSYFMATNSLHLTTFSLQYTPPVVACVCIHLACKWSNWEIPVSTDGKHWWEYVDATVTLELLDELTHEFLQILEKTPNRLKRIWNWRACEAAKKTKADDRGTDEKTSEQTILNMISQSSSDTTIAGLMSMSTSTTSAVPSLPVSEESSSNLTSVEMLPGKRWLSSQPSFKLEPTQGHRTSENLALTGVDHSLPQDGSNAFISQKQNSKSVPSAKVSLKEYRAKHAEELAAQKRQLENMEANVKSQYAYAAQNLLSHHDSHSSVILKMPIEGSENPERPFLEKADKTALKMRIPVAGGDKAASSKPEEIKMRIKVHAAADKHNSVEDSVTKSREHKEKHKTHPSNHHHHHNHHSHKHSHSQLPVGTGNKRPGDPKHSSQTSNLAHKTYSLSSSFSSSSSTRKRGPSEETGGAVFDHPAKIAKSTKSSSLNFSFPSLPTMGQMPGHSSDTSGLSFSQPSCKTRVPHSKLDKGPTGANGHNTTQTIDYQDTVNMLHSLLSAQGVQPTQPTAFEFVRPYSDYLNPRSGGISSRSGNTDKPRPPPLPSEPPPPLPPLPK
T9 sequence (Q06187 whole entry): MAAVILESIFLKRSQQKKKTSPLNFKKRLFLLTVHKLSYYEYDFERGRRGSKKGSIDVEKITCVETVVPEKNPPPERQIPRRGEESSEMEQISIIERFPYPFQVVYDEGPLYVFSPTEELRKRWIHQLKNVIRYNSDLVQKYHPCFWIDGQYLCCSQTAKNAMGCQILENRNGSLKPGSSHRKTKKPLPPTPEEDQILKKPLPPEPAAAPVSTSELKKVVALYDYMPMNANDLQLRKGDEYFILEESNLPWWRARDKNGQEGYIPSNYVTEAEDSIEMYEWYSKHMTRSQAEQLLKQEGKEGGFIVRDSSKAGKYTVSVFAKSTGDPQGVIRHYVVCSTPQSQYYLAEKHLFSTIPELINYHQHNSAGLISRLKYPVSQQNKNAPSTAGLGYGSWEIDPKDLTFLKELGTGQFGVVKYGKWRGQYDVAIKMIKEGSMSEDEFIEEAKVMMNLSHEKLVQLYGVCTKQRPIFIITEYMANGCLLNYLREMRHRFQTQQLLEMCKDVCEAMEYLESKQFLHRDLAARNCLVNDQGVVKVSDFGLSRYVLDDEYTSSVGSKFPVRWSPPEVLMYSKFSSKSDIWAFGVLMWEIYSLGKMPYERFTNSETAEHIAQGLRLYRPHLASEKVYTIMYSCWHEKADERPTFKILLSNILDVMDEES
T5 sequence (Q15418 whole entry): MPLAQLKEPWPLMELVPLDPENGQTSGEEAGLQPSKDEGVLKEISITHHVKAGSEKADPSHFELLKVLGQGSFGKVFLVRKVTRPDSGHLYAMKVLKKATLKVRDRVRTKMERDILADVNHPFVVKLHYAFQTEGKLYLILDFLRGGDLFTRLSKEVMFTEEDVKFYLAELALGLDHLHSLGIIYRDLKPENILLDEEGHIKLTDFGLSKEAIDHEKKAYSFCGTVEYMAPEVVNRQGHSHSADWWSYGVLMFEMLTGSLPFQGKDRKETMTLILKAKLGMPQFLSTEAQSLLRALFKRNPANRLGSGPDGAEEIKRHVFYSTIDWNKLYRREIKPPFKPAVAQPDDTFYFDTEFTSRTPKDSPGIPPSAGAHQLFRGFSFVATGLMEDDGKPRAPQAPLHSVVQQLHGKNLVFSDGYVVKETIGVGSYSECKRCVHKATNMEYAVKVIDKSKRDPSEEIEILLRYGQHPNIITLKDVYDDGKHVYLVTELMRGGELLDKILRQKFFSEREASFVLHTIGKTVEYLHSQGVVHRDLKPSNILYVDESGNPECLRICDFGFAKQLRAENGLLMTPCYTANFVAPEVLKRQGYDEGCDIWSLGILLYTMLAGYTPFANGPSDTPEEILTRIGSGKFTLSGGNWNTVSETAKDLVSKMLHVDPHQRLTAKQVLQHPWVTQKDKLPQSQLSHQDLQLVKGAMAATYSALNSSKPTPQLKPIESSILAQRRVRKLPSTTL
T3 sequence (P29597 whole entry): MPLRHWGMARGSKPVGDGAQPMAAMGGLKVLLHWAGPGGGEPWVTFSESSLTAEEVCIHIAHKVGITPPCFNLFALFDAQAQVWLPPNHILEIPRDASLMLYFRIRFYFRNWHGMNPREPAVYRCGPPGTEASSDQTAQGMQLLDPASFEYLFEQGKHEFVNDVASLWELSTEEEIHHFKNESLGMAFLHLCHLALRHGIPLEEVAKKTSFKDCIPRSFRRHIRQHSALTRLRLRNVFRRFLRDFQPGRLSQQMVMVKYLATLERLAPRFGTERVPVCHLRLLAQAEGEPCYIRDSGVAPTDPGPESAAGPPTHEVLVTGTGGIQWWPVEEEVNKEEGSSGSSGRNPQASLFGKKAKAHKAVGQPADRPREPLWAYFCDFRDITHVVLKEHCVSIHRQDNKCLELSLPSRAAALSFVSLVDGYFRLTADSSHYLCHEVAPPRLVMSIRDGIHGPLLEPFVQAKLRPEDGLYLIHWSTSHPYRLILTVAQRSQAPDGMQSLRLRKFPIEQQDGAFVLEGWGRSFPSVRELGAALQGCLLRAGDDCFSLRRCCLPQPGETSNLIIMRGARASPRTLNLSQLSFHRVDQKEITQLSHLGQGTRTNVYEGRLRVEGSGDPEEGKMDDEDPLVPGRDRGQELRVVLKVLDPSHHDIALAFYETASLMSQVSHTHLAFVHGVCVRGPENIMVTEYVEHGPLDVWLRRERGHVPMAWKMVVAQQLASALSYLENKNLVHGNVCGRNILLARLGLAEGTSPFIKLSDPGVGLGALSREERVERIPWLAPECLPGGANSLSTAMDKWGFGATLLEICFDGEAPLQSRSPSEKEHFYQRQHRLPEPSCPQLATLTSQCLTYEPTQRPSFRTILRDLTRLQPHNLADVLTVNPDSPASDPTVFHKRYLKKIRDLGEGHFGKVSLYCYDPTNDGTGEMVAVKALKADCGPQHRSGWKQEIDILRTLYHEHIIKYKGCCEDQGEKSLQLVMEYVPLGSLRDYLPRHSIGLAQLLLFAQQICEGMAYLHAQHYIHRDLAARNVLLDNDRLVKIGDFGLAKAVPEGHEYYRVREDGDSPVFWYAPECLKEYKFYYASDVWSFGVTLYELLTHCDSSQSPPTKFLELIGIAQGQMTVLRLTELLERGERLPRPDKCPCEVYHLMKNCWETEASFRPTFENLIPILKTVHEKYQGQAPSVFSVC
T1 sequence (Q9NWZ3 whole entry): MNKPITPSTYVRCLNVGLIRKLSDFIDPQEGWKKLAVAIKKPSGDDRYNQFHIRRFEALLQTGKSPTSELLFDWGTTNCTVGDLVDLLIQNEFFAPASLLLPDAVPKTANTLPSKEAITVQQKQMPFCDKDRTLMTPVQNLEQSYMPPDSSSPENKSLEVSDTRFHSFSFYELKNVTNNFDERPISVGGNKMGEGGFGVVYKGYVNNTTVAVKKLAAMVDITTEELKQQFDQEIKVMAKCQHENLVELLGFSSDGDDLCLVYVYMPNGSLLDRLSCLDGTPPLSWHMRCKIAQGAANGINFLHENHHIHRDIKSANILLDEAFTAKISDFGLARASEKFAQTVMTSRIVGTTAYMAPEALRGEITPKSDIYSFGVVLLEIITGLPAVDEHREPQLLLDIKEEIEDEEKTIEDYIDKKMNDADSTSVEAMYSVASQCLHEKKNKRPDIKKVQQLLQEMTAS
T8 sequence (Q9HCP0 whole entry): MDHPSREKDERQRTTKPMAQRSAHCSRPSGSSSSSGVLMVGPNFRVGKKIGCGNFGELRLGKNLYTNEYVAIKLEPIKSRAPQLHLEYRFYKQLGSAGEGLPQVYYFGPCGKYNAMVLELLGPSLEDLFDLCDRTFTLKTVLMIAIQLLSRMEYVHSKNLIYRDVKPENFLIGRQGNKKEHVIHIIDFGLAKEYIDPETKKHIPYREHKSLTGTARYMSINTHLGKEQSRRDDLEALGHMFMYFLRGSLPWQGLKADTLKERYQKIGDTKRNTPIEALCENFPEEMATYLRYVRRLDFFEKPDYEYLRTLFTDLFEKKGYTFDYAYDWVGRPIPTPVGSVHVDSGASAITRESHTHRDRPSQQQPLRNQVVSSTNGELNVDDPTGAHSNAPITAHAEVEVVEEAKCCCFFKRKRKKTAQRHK

With `c1cc(-c2ccc3nccc(Nc4ccc5scnc5c4)c3c2)ccn1` [Compound 14, N-(6-(pyridin-4-yl)quinolin-4-yl)benzo[d]thiazol-5-amine] the “Percent remaining IRAK4 activity with compound 14 at 1 µM” value (IRAK4(h)) was 107, the AO oxidase substrate (AO oxidase) was “metabolic substrates of AO oxidase” and the “kinase activity remaining (% of control)” value (TYK2(h)) was 108. The “remaining IGF-1R activity (% of control)” value (IGF-1R(h)) was 109, the “Rsk1 kinase activity remaining (% of control)” value (Rsk1(h)) was 98 and the LipE (RIPK2) was 4.40. For the same compound, the “ALK remaining activity (% of control)” value (ALK(h)) was 77, the “Remaining kinase activity (% of control)” value (CK1γ1(h)) was 93 and the “remaining BTK activity (% of control)” value (BTK(h); 1 µM) was 4. For the same compound, the inhibition at 1 µM (BTK(h); at 1 µM) was > 90%, the “remaining kinase activity (%)” value (CDK9/cyclin T1(h); 1 µM) was 41 and the inhibition at 1 µM (CDK9/cyclin T1(h); at 1 µM) was 50 to 90%. For the same compound, the “remaining Plk3 kinase activity (% of control)” value (Plk3(h)) was 86.
